Assay results from US20060135785A1, “Alpha-phenyl acetanilide derivatives having an acat inhibiting activity and the therapeutic application thereof” (Pierre Fabre Medicament, priority 2002, published 2006).
Like-named read-outs stand apart in the source and are kept apart here.

Experiments:
plasma cholesterol = experiment: Blood cholesterol-lowering activity in rats on hypercholesterolemic diet; assay type: in vivo, rat; conditions: male rats, Altromin C 1061 hypercholesterolemic diet 4 days, dose that reduces the plasma cholesterol concentration by half compared with control animals
Procedure: Male rats (160-180 g) were subjected, for 4 days, to an Altromin C 1061 hypercholesterolemic diet and treated in parallel orally with the compounds in suspension in a solution of 2% Tween 80 in distilled water.
On the 5th day, the animals not fasting are anaesthetized with ethyl ether, and bled out on EDTA via the abdominal aorta. The blood is immediately centrifuged and the plasma is stored at 4° C.
The plasma cholesterol is then assayed by the CHOD-PAP method (Boehringer Mannheim Ref. 237574). The 50% effective dose (ED50) corresponds to the dose that reduces the plasma cholesterol concentration by half compared with control animals.

[1] = Rattus norvegicus, po, 96 h, read-out: ED50

Structure (SMILES)	melting point [°C]	ED50 (plasma cholesterol; oral) [mg/kg]	ED50 (plasma cholesterol; [1]) [mg/kg]
CCCCCCCCCCCCn1nnc(C(F)(C(=O)Nc2c(C)c(C)c(N)c(C)c2C)c2ccccc2)n1.Cl (stereo not shown)	168	–	–
CCCCCCCCCCCCn1nnc(C(C(=O)Nc2cc(C)c(O)c(C)c2C)c2ccccc2)n1 (single isomer, unassigned; (+)) [Compound 5, (+)-2′,3′,5′-Trimethyl-4′-hydroxy-α-(2-dodecyl-2H-5-tetrazolyl)-α-phenylacetanilide]	–	0.025	–
CCCCCCCCCCCCn1nnc(C(F)(C(=O)Nc2cc(C)c(O)c(C)c2C)c2ccccc2)n1 (single isomer, unassigned; (+)) [Compound 9, (+)-21,3′,5′-Trimethyl-4′-hydroxy-α-(2-dodecyl-2H-5-tetrazolyl)-α-fluoro-α-phenylacetanilide]	–	–	0.012
CCCCCCCCCCCCS(=O)(=O)[C@H](C(=O)Nc1cc(C)c(O)c(C)c1C)c1ccccc1 [Compound 1, (S)-2′,3′,5′-Trimethyl-4′-hydroxy-α-dodecylsulfonyl-α-phenylacetanilide]	–	–	0.25
CCCCCCCCCCCCS(=O)(=O)C(F)(C(=O)Nc1cc(C)c(O)c(C)c1C)c1ccccc1 (stereo not drawn) [Compound 3, 2′,3′,5′-Trimethyl-4′-hydroxy-α-dodecylsulfonyl-α-fluoro-α-phenylacetanilide]	–	–	0.022
CCCCCCCCCCCCn1nnc(C(C(=O)Nc2cc(C)c(O)c(C)c2C)c2ccccc2)n1 (stereo not drawn) [Compound 4, 2′,3′,5′-Trimethyl-4′-hydroxy-α-(2-dodecyl-2H-5-tetrazolyl)-α-phenylacetanilide]	105	–	0.029
Cc1cc(NC(=O)C(F)(c2ccccc2)c2nnn(CCCCCCCCCCCC(F)F)n2)c(C)c(C)c1O (stereo not drawn) [Compound 10, 2′,3′,5′-Trimethyl-4′-hydroxy-α-[2-(12,12-difluoro-dodecyl)-2H-5-tetrazolyl]-α-fluoro-α-phenylacetanilide]	96	–	0.029
CCCCCCCCCCCCS[C@H](C(=O)Nc1cc(C)c(O)c(C)c1C)c1ccccc1 [Eflucimibe, reference compound]	–	–	0.12
